Assay results published in US10758534B2 (Vertex Pharmaceuticals Incorporated, priority 2014, dated 2020).

Target: T1, F508del (Homo sapiens, UniProt P13569, DEL508-508)
T1 construct: expressed in transfected cells
Assay: Protocol 2: FRET membrane potential optical assay (VIPR), identification of correction compounds
Type: cell-based
Conditions: Table 3; compounds of Table 1 as modulators of CFTR activity; protocol not stated
In short: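 Correction of the F508del trafficking defect is scored as forskolin (10 μM)/genistein (20 μM)-stimulated Cl^− efflux in NIH3T3 mouse fibroblasts after a 16 hr, 37° C. compound exposure. Depolarization was followed optically using voltage-sensing FRET dyes.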

T1 sequence (P13569 with tags, fused parts or gaps DEL508-508): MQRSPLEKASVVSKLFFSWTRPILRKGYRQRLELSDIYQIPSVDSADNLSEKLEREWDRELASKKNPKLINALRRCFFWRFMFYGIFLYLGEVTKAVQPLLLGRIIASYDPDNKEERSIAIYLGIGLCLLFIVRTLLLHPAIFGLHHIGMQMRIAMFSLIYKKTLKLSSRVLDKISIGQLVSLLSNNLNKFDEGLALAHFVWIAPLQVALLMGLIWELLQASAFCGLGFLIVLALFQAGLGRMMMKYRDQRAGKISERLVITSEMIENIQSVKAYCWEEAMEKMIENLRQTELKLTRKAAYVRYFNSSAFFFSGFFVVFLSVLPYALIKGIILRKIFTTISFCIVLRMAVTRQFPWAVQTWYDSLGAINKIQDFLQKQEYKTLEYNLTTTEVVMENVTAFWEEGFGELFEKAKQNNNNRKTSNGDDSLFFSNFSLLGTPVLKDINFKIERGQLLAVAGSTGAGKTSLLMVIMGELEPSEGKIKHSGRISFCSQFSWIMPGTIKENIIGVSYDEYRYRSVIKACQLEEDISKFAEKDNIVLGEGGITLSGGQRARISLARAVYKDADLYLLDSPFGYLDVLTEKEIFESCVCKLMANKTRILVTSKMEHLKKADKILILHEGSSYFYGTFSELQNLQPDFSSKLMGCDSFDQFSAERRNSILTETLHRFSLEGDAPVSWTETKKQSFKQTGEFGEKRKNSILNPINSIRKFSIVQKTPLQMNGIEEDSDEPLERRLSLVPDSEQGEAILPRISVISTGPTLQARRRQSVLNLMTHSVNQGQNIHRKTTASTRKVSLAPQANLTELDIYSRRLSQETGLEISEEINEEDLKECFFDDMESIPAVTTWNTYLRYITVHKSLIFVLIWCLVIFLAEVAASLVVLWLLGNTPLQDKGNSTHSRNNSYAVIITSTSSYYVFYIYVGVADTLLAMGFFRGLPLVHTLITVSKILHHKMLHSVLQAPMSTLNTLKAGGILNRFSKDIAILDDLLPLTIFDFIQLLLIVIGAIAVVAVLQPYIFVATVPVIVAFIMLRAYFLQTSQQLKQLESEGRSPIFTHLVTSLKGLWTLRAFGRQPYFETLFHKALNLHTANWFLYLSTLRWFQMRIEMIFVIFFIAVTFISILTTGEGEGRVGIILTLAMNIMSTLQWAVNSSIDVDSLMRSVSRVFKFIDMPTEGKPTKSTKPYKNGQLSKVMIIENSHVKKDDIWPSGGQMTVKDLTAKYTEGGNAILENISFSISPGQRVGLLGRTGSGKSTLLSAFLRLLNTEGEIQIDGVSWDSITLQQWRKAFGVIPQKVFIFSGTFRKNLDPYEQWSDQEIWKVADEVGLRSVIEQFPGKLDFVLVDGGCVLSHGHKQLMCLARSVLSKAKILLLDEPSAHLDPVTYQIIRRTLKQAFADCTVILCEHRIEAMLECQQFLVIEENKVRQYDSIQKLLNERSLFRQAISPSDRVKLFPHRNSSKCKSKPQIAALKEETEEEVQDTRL

SMILES | EC30
CC(C)COc1cc(F)cc(-c2ccc(C(=O)NS(=O)(=O)c3ccn[nH]3)c(N3CCCC(c4ccccn4)C3)n2)c1 (centres unmarked) [Compound 677, 6-(3-fluoro-5-isobutoxy-phenyl)-N-(1H-pyrazol-5-ylsulfonyl)-2-[3-(2-pyridyl)-1-piperidyl]pyridine-3-carboxamide] | ++ (“++” means between 3 uM and 10 uM)
CC(C)COc1cc(F)cc(-c2ccc(C(=O)NS(=O)(=O)c3cccc(N)n3)c(N3CC[C@H](C)C3)n2)c1 [Compound 678, N-[(6-amino-2-pyridyl)sulfonyl]-6-(3-fluoro-5-isobutoxy-phenyl)-2-[(3S)-3-methylpyrrolidin-1-yl]pyridine-3-carboxamide] | +++ (“+++” means <3 uM)
CC(C)COc1cc(F)cc(-c2ccc(C(=O)NS(=O)(=O)c3ccn[nH]3)c(Oc3ccccc3)n2)c1 [Compound 679, 6-(3-fluoro-5-isobutoxy-phenyl)-2-phenoxy-N-(1H-pyrazol-5-ylsulfonyl)pyridine-3-carboxamide] | +++ (“+++” means <3 uM)
CC(C)COc1cc(F)cc(-c2ccc(C(=O)NS(=O)(=O)c3cccc(N)n3)c(N3CC4CCC3C4)n2)c1 (centres unmarked) [Compound 680, N-[(6-amino-2-pyridyl)sulfonyl]-2-(3-azabicyclo[2.2.1]heptan-3-yl)-6-(3-fluoro-5-isobutoxy-phenyl)pyridine-3-carboxamide] | +++ (“+++” means <3 uM)
CC(C)COc1ccc(F)c(-c2ccc(C(=O)NS(=O)(=O)c3ccn[nH]3)c(N3[C@H](C)CC[C@@H]3C)n2)c1 [Compound 681, 2-[(2S,5R)-2,5-dimethylpyrrolidin-1-yl]-6-(2-fluoro-5-isobutoxy-phenyl)-N-(1H-pyrazol-5-ylsulfonyl)pyridine-3-carboxamide] | +++ (“+++” means <3 uM)
COc1cc(F)cc(-c2ccc(C(=O)NS(=O)(=O)c3cccc(N)n3)c(Oc3c(C)cc(C)cc3C)n2)c1 [Compound 682, N-[(6-amino-2-pyridyl)sulfonyl]-6-(3-fluoro-5-methoxy-phenyl)-2-(2,4,6-trimethylphenoxy)pyridine-3-carboxamide] | +++ (“+++” means <3 uM)
CC(C)COc1cc(F)cc(-c2ccc(C(=O)NS(=O)(=O)c3cccc(N)n3)c(N(C)C3CCC3)n2)c1 [Compound 683, N-[(6-amino-2-pyridyl)sulfonyl]-2-[cyclobutyl(methyl)amino]-6-(3-fluoro-5-isobutoxy-phenyl)pyridine-3-carboxamide] | +++ (“+++” means <3 uM)
CC(C)COc1cc(F)cc(-c2ccc(C(=O)NS(=O)(=O)c3cccc(N)n3)c(N3CCC[C@@H](c4ccccc4)C3)n2)c1 [Compound 684, N-[(6-amino-2-pyridyl)sulfonyl]-6-(3-fluoro-5-isobutoxy-phenyl)-2-[(3S)-3-phenyl-1-piperidyl]pyridine-3-carboxamide] | +++ (“+++” means <3 uM)
CC1(C)CCCc2cc(C(=O)NS(=O)(=O)c3cccc(N)c3)c(-c3ccccc3)nc21 [Compound 685, N-(3-aminophenyl)sulfonyl-8,8-dimethyl-2-phenyl-6,7-dihydro-5H-quinoline-3-carboxamide] | +++ (“+++” means <3 uM)
Cc1cc(C)c(Oc2nc(-c3cccc(CN4CCCCC4)c3)ccc2C(=O)NS(=O)(=O)c2cccc(N)n2)c(C)c1 [Compound 686, N-[(6-amino-2-pyridyl)sulfonyl]-6-[13-(1-piperidylmethyl)phenyl]-2-(2,4,6-trimethylphenoxy)pyridine-3-carboxamide] | +++ (“+++” means <3 uM)
CC(C)Oc1ccc(-c2ccc(C(=O)NS(=O)(=O)c3cccc(N)n3)c(N3[C@@H](C)CC[C@@H]3C)n2)cn1 [Compound 687, N-[(6-amino-2-pyridyl)sulfonyl]-2-[(2S,5S)-2,5-dimethylpyrrolidin-1-yl]-6-(6-isopropoxy-3-pyridyl)pyridine-3-carboxamide] | ++ (“++” means between 3 uM and 10 uM)
